Reference: patent US20250092065A1, “2-(INDAZOL-5-YL)-6-(PIPERIDIN-4-YL)-1,7-NAPHTHYRIDINE DERIVATIVES AND RELATED COMPOUNDS AS MODULATORS FOR SPLICING NUCLEIC ACIDS AND FOR THE TREATMENT OF PROLIFERATIVE DISEASES” (REMIX THERAPEUTICS INC., priority 2022, published 2025)
Where two headings read alike, the source gives them in different places.

How the values were obtained:
Target C = experiment: RT-qPCR canonical junction panel assay, Target C mRNA; assay type: cell-based; conditions: Table 4, read-out: Target C IC50 (decrease in CJ mRNA levels)
Method in brief: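 IC50 is the concentration giving 50% CJ decrease, from a 4-parameter logistic fit of percent response; response derived from ΔΔCt against housekeeper and DMSO over a fixed ΔCt window, with canonical exon-junction qPCR in compound-treated K562 or A673 cells.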

SMN2 mRNA = experiment: RT-qPCR splicing assay, SMN2 mRNA; assay type: cell-based, human; conditions: Homo sapiens, canonical junction qPCR panel, Table 4; read-out: SMN2 IC50 (decrease in CJ mRNA levels)
Method in brief: (§1)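 Both isoforms, CJ and AJ, read by qPCR from crude lysates of treated A673 or K562 cells; 24 h, 37 °C, maximum 10 uM. Normalization: housekeeper ΔCt, then DMSO ΔΔCt.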

MYB mRNA = experiment: RT-qPCR splicing assay, MYB mRNA canonical (CJ) and alternative (AJ) junction; assay type: cell-based, human; conditions: Homo sapiens; for AC50: MYB alternative junction mRNA, read-out: MYB AJ (increase in AJ mRNA, AC50)
Method in brief: as §1

[1] = MYB canonical junction mRNA, RT-qPCR, read-out: MYB CJ (decrease in CJ mRNA levels, IC50)
[2] = canonical junction qPCR panel, Table 4, read-out: MYB IC50 (decrease in CJ mRNA levels)

Row | IC50 (Target C) | IC50 (SMN2 mRNA) | IC50 (MYB mRNA; [1]) | IC50 (MYB mRNA; [2]) | SMILES | AC50 (MYB mRNA; RT-qPCR)
1 | < 100 nM | < 100 nM | < 100 nM | < 100 nM | Cc1c(O)c(-c2ccc3nc(N4CCC(NC5(CF)CC5)C4)ccc3n2)cc2cn(C)nc12 (stereo not drawn) [Compound 360, 5-[6-(3-{[1-(fluoromethyl)cyclopropyl]amino}pyrrolidin-1-yl)-1,5-naphthyridin-2-yl]-2,7-dimethylindazol-6-ol] | < 100 nM
2 | 1000 to 10000 nM | < 100 nM | 100 to 1000 nM | 100 to 1000 nM | Cc1c(O)c(-c2ncc3nc(C4CCNCC4)ccc3n2)cc2cn(C)nc12 [Compound 370, 2,7-dimethyl-5-[6-(piperidin-4-yl)pyrido[3,2-d]pyrimidin-2-yl]indazol-6-ol] | 100 to 1000 nM
3 | < 100 nM | < 100 nM | < 100 nM | < 100 nM | Cc1nc2c(F)c(O)c(-c3ccc4nc(N5CC[C@H](N[C@H]6C[C@@H](F)C6)C5)ccc4n3)cc2o1 [Compound 374, 4-fluoro-2-methyl-6-[6-(3-{[(1r,3r)-3-fluorocyclobutyl]amino}pyrrolidin-1-yl)-1,5-naphthyridin-2-yl]-1,3-benzoxazol-5-ol] | < 100 nM
4 | 100 to 1000 nM | < 100 nM | 100 to 1000 nM | 100 to 1000 nM | Cn1cc2cc(-c3ccc4nc(N5CC[C@@H](NC6CC(F)(F)C6)C5)ccc4n3)c(O)cc2n1 [Compound 385] | 100 to 1000 nM
5 | < 100 nM | < 100 nM | < 100 nM | < 100 nM | Cn1cc2cc(-c3ccc4nc(N5CCC(NCC6CC6)C5)ccc4n3)c(O)c(F)c2n1 (stereo not drawn) [Compound 387, 5-(6-{3-[(cyclopropylmethyl)amino]pyrrolidin-1-yl}-1,5-naphthyridin-2-yl)-7-fluoro-2-methylindazol-6-ol] | < 100 nM
6 | 100 to 1000 nM | < 100 nM | < 100 nM | < 100 nM | Cc1nc2cc(O)c(-c3ccc4nc(N5CCC(NCC6CC6)C5)ccc4n3)cc2o1 (stereo not drawn) [Compound 389, 6-(6-{3-[(cyclopropylmethyl)amino]pyrrolidin-1-yl}-1,5-naphthyridin-2-yl)-2-methyl-1,3-benzoxazol-5-ol] | < 100 nM
7 | 1000 to 10000 nM | < 100 nM | 100 to 1000 nM | 100 to 1000 nM | Cn1cc2cc(-c3ncc4nc(C5CCNCC5)ccc4n3)c(O)c(C#N)c2n1 [Compound 403, 6-hydroxy-2-methyl-5-[6-(piperidin-4-yl)pyrido[3,2-d]pyrimidin-2-yl]indazole-7-carbonitrile; trifluoroacetic acid] | < 100 nM
8 | 1000 to 10000 nM | < 100 nM | 100 to 1000 nM | 100 to 1000 nM | CN[C@@H]1CCN(c2ccc3nc(-c4cc(C#N)c5nc(C)cn5c4)ncc3n2)C1 [Compound 407, 2-methyl-6-{6-[(3R)-3-(methylamino)pyrrolidin-1-yl]pyrido[3,2-d]pyrimidin-2-yl}imidazo[1,2-a]pyridine-8-carbonitrile] | 100 to 1000 nM
9 | 1000 to 10000 nM | < 100 nM | 100 to 1000 nM | 100 to 1000 nM | Cc1nc2cc(O)c(-c3ccc4nc(N5CCN[C@@H](C)C5)ccc4n3)cc2o1 [Compound 409] | 100 to 1000 nM
10 | 100 to 1000 nM | < 100 nM | 100 to 1000 nM | 100 to 1000 nM | Cc1nc2cc(O)c(-c3ccc4nc(N5CCN6CCCC6C5)ccc4n3)cc2o1 (stereo not drawn) [Compound 410] | 100 to 1000 nM
11 | 100 to 1000 nM | 100 to 1000 nM | 100 to 1000 nM | 100 to 1000 nM | Cc1nc2cc(O)c(-c3ccc4nc(N5CCC(NC(C)(C)C)CC5)ccc4n3)cc2o1 [Compound 412] | 100 to 1000 nM
12 | < 100 nM | < 100 nM | < 100 nM | < 100 nM | Cc1nc2cc(O)c(-c3ccc4nc(N5CC[C@@H](NC(C)(C)C)C5)ncc4n3)cc2o1 [Compound 413, 6-{2-[(3R)-3-(tert-butylamino)pyrrolidin-1-yl]pyrido[3,2-d]pyrimidin-6-yl}-2-methyl-1,3-benzoxazol-5-ol] | < 100 nM
13 | 1000 to 10000 nM | 100 to 1000 nM | 1000 to 10000 nM | 1000 to 10000 nM | Cc1nc2cc(O)c(-c3ccc4nc(N5CC[C@H](NC(C)(C)C)C5)ncc4n3)cc2o1 [Compound 414, 6-{2-[(3S)-3-(tert-butylamino)pyrrolidin-1-yl]pyrido[3,2-d]pyrimidin-6-yl}-2-methyl-1,3-benzoxazol-5-ol] | 1000 to 10000 nM
14 | < 100 nM | < 100 nM | < 100 nM | < 100 nM | Cc1nc2c(C)c(O)c(-c3ccc4nc(N5CC[C@H](NC(C)C)C5)ncc4n3)cc2o1 [Compound 416, 6-{2-[(3S)-3-(isopropylamino)pyrrolidin-1-yl]pyrido[3,2-d]pyrimidin-6-yl}-2,4-dimethyl-1,3-benzoxazol-5-ol] | < 100 nM

The next lines start with the compound.

Row | SMILES | IC50 (Target C) | IC50 (SMN2 mRNA) | IC50 (MYB mRNA; [1]) | IC50 (MYB mRNA; [2]) | AC50 (MYB mRNA; RT-qPCR)
15 | Cc1c(O)c(-c2cc(C(C)O)c3nc(N4CCNCC4)ccc3n2)cc2cn(C)nc12 (stereo not drawn) [Compound 364, 5-[4-(1-hydroxyethyl)-6-(piperazin-1-yl)-1,5-naphthyridin-2-yl]-2,7-dimethylindazol-6-ol] | > 10000 nM | 100 to 1000 nM | 1000 to 10000 nM | 1000 to 10000 nM | 1000 to 10000 nM
16 | CNC1CCN(c2ccc3nc(-c4cc(C#N)c5nc(C)cn5c4)ncc3n2)C1 (stereo not drawn) [Compound 382, 2-methyl-6-{6-[3-(methylamino)pyrrolidin-1-yl]pyrido[3,2-d]pyrimidin-2-yl}imidazo[1,2-a]pyridine-8-carbonitrile] | 1000 to 10000 nM | < 100 nM | < 100 nM | < 100 nM | < 100 nM
17 | Cn1cc2cc(-c3ccc4nc(N5CC[C@H](NC6CC(F)(F)C6)C5)ccc4n3)c(O)cc2n1 [Compound 384] | > 10000 nM | < 100 nM | 100 to 1000 nM | 100 to 1000 nM | 100 to 1000 nM
18 | CC(C)NC1CCN(c2ccc3nc(-c4cc5cn(C)nc5c(F)c4O)ccc3n2)C1 (stereo not drawn) [Compound 388, 7-fluoro-5-{6-[3-(isopropylamino)pyrrolidin-1-yl]-1,5-naphthyridin-2-yl}-2-methylindazol-6-ol] | < 100 nM | < 100 nM | < 100 nM | < 100 nM | < 100 nM
19 | Cc1nc2c(C)c(O)c(-c3ccc4nc(N5CCC(NCC6CC6)C5)ccc4n3)cc2o1 (stereo not drawn) [Compound 390, 6-(6-{3-[(cyclopropylmethyl)amino]pyrrolidin-1-yl}-1,5-naphthyridin-2-yl)-2,4-dimethyl-1,3-benzoxazol-5-ol] | < 100 nM | < 100 nM | < 100 nM | < 100 nM | < 100 nM
20 | CNC1CCN(c2ccc3nc(-c4cc(F)c5nc(C)cn5c4)ncc3n2)C1 (stereo not drawn) [Compound 393, 1-(2-{8-fluoro-2-methylimidazo[1,2-a]pyridin-6-yl}pyrido[3,2-d]pyrimidin-6-yl)-N-methylpyrrolidin-3-amine] | 100 to 1000 nM | < 100 nM | < 100 nM | < 100 nM | < 100 nM
21 | Cc1c(O)c(-c2ncc3nc(C4CCNC4)ccc3n2)cc2cn(C)nc12 (stereo not drawn) [Compound 397, 2,7-dimethyl-5-[6-(pyrrolidin-3-yl)pyrido[3,2-d]pyrimidin-2-yl]indazol-6-ol; trifluoroacetic acid] | > 10000 nM | < 100 nM | 100 to 1000 nM | 100 to 1000 nM | 100 to 1000 nM
22 | Cc1c(O)c(-c2ncc3nc([C@H]4CCNC4)ccc3n2)cc2cn(C)nc12 [Compound 399] | > 10000 nM | 100 to 1000 nM | 1000 to 10000 nM | 1000 to 10000 nM | 1000 to 10000 nM
23 | Cn1cc2cc(-c3ccc4nc(N5CCC(NC(C)(C)C)C5)ncc4n3)c(O)cc2n1 (stereo not drawn) [Compound 404, 5-{2-[3-(tert-butylamino)pyrrolidin-1-yl]pyrido[3,2-d]pyrimidin-6-yl}-2-methylindazol-6-ol] | < 100 nM | < 100 nM | 100 to 1000 nM | 100 to 1000 nM | 100 to 1000 nM
24 | COc1cc(-c2ccc3nc(N4CCC(NC(C)(C)C)C4)ncc3n2)cnn1 (stereo not drawn) [Compound 405, N-tert-butyl-1-[6-(6-methoxypyridazin-4-yl)pyrido[3,2-d]pyrimidin-2-yl]pyrrolidin-3-amine] | 1000 to 10000 nM | 1000 to 10000 nM | 1000 to 10000 nM | 1000 to 10000 nM | 1000 to 10000 nM
25 | CN[C@H]1CCN(c2ccc3nc(-c4cc(C#N)c5nc(C)cn5c4)ncc3n2)C1 [Compound 406, 2-methyl-6-{6-[(3S)-3-(methylamino)pyrrolidin-1-yl]pyrido[3,2-d]pyrimidin-2-yl}imidazo[1,2-a]pyridine-8-carbonitrile] | 1000 to 10000 nM | 100 to 1000 nM | 1000 to 10000 nM | 1000 to 10000 nM | 100 to 1000 nM
26 | Cc1nc2cc(O)c(-c3ccc4nc(N5CCNCC5)ccc4n3)cc2o1 [Compound 408, 2-methyl-6-[6-(piperazin-1-yl)-1,5-naphthyridin-2-yl]-1,3-benzoxazol-5-ol] | 1000 to 10000 nM | < 100 nM | 100 to 1000 nM | 100 to 1000 nM | 100 to 1000 nM
27 | Cc1nc2cc(O)c(-c3ccc4nc(N5CCNC6(CC6)C5)ccc4n3)cc2o1 [Compound 411] | 1000 to 10000 nM | < 100 nM | 100 to 1000 nM | 100 to 1000 nM | 100 to 1000 nM
